# “Also recorded” adds a separate entry of the source.
# How the values were obtained:
# [1] = tested on: Aβ1-42-stimulated microglia; format: cell-based, rat
# Outline: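 E18 rat hippocampal cultures, microglia depleted with saporin–ac-LDL (10 μg/ml, 12 h) on day 14, then given test substances at 10μM with or without exogenous microglia (100,000 cells) for 72 h. Neurons immunostained (NF plus MAP-2) and nuclei counted by fluorescence microscopy; survival expressed as % of parallel untreated controls.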
# NMDA receptor = experiment: whole cell current elicited by NMDA in Xenopus oocytes injected with NMDA R1 and R2 subunit cRNAs; format: cell-based; conditions: FIG. 34
# Excerpt: FIG. 34 is a graph shorting the % maximal current peak elicited by NMDA, octopamine and tyramine compounds in the presence of a given NMDA concentration. […].
# The precise mechanism of NTox that leads to the destruction of neurons is only partially characterized. Based upon extensive testing with receptor antagonists, it has been discovered that two classes of neurotransmitter receptors are involved--the n-methyl D-aspartate (NMDA) class of […] receptors and the Muscarinic (M receptors) class of cholinergic receptors. […] […]. Further study to determine if tyramine compounds act upon the NMDA receptor itself involved expression of the NMDA receptor complex in Xenopus oocytes and measurement of ionic fluxes across the oocyte membrane that are elicited by NMDA. […] […]. […] Thus, tyramine compounds appear to have several actions, one of which is upon the NMDA receptor.
# AMAA = experiment: protection of neurons against AMAA; format: cell-based; conditions: FIG. 32
# Excerpt: (§1) FIG. 32 is a graph showing the specificity of tyramine compounds to NTox. […]
# NTox = experiment: protection of neurons against isolated NTox applied directly; format: cell-based
# [2] = tested on: human microglia stimulated with S5; format: cell-based;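 further: drugs applied at 10 µM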
# [3] = tested on: HEK cells expressing NMDA1b/2A; experiment: NTox killing of HEK cells expressing NMDA receptors, trypan blue; format: cell-based, human; conditions: 1 nM NTox, 24 hours
# Excerpt: Photomicrograph of trypan blue(+) control HEK cells exposed to NTox. Few blue, dead cells are noted.
# quinolinic acid (QUIN) = experiment: protection of neurons against quinolinic acid; format: cell-based; conditions: QUIN (100 μM in FIG. 13)
# Excerpt: as §1
smiles,measurement,setting,value
C[C@]12N[C@H](Cc3ccccc31)c1ccccc12 [MK-801],"drug blockade of neuron killing, rat microglia",[1],prevented neuronal loss; also recorded: blocked neuron death
same,effect on current elicited by NMDA,NMDA receptor,could be blocked
same,protection against AMAA,AMAA,prevented from killing neurons
same,"neuroprotective effects against NTox, concentration range",NTox,~100 nM
same,inhibition of killing action of NTox applied to neurons,"NTox; isolated NTox, FIGS. 13, 32",NTox can be blocked
same,"drug blockade of neuron killing, human microglia",[2],blocked neuron death
same,blocking of NTox killing,[3],could be blocked
same,protection against quinolinic acid,quinolinic acid (QUIN),prevented from killing neurons
